Data published in patent US20230338338A1, “PHARMACEUTICAL COMPOSITIONS COMPRISING IONIC LIQUIDS” (The Provost, Fellows, Foundation Scholars, and the other …, priority 2021, published 2023).

Experiments:
Format in all cases: physicochemical
[1] = Thermodynamic stability and miscibility of the ionic liquid in dissolution media (stirred 24 hours at 37° C., then monitored for two years); settings: for miscibility with dissolution medium: 2 to 85% w/w; for thermodynamic stability (crystallisation or liquid-liquid phase separation): 2 to 85% w/w BMIm Ibu:dissolution medium, stirred 24 hours at 37° C., then ambient conditions over two years
Protocol: The thermodynamic stability of BMIm Ibu (ionic liquid) in deionised water (DIW) and simulated intestinal fluid (SIF; 0.05 M phosphate buffer, pH 6.8) was quantified as follows: Ratios of 2 to 85% w/w BMIm Ibu:dissolution medium were placed in small vials and allowed to stir for 24 hours at 37° C.

[2] = Dissolution study, USP Apparatus 2, simulated intestinal fluid (SIF); settings: 0.05M phosphate buffer (pH 6.8), 900 ml, 37° C., 50 rpm, equivalent of 200 mg ibuprofenate ion, after 10 minutes until the end of four hours
Protocol: (§1) Dissolution studies were performed using a USP Apparatus 2 with a Sotax AT7 dissolution bath (Carl Stuart Limited, Dublin, Ireland). The mass of powder corresponding to the equivalent of 200 mg of ibuprofenate ion (equivalent to one dose) was added to 900 ml of dissolution media equilibrated at 37° C. stirred at 50 rpm. Samples were taken and replaced with fresh media every 5 min for the first 30 min, then at 45 min, 60 min and then every 30 min for the remainder of the experiment. The first 2 ml of each 5 ml sample was filtered and discarded before the remaining sample was filtered through a 0.45 μm nylon filter into a HPLC vial. All experiments were carried out in triplicate. A sample of the powder was assayed by completely dissolving it in methanol (n=3) and finding the ionic liquid content by HPLC.
The dissolution of powders 1 and 5 to 8 in simulated intestinal fluid (SIF), 0.05M phosphate buffer (pH 6.8) over a period of four hours was studied.
The dissolution of powders 9 and 10 in simulated intestinal fluid (SIF), 0.05M phosphate buffer (pH 6.8) over a period of four hours was studied.

[3] = Dissolution study, USP Apparatus 2, deionised water; settings: 900 ml, 37° C., 50 rpm, equivalent of 200 mg ibuprofenate ion, after 10 minutes until the end of four hours
Protocol: as §1
The dissolution of powders 1 and 5 to 8 in deionised water over a period of four hours was studied.
The dissolution of powders 9 and 10 in deionised water over a period of four hours was studied.
An ibuprofen amorphous solid dispersion was also tested. The amorphous solid dispersion was prepared by spray drying a solution of ibuprofen and hydroxypropyl methylcellulose in methanol in the same way as Powders 1 to 8. The ibuprofen content of the amorphous solid dispersion was the same as Powder 1.

[4] = simulated intestinal fluid (SIF; 0.05 M phosphate buffer, pH 6.8)

miscibility with dissolution medium ([1]; deionised water (DIW)) | miscibility with dissolution medium [1, 4] | level of dissolution [2] | level of dissolution [3] | SMILES | thermodynamic stability (crystallisation or liquid-liquid phase separation) ([1]; deionised water (DIW)) | thermodynamic stability (crystallisation or liquid-liquid phase separation) [1, 4]
fully miscible | fully miscible |  |  | CC(C)Cc1ccc(C(C)C(=O)[O-])cc1.CCCCn1cc[n+](C)c1 (stereo not drawn) [BMIm Ibu, 1-butyl-3-methyl imidazolium ibuprofenate] | No crystallisation or phase separation was observed | No crystallisation or phase separation was observed
 |  | 100% | ≤ 30% | CC(C)Cc1ccc(C(C)C(=O)O)cc1 (stereo not drawn) [crystalline ibuprofen, ibuprofen] |  | 
